These compounds were tested against T1, human acetyl-CoA carboxylase 2 (ACC2) (Homo sapiens, UniProt O00763) (assay: Acetyl-CoA carboxylase enzyme assay (malonyl-CoA formation by LC/MS/MS)). Conditions: recombinant human ACC2 (aa 144-2458); read-out: IC50 ACC2.
T1 construct: The cDNA encoding amino acids 144 to 2458 of human acetyl-CoA carboxylase 2; made in house; host or cells: Sf9 insect cells (baculovirus, pFastBac1)
T1 sequence (O00763 144-2458): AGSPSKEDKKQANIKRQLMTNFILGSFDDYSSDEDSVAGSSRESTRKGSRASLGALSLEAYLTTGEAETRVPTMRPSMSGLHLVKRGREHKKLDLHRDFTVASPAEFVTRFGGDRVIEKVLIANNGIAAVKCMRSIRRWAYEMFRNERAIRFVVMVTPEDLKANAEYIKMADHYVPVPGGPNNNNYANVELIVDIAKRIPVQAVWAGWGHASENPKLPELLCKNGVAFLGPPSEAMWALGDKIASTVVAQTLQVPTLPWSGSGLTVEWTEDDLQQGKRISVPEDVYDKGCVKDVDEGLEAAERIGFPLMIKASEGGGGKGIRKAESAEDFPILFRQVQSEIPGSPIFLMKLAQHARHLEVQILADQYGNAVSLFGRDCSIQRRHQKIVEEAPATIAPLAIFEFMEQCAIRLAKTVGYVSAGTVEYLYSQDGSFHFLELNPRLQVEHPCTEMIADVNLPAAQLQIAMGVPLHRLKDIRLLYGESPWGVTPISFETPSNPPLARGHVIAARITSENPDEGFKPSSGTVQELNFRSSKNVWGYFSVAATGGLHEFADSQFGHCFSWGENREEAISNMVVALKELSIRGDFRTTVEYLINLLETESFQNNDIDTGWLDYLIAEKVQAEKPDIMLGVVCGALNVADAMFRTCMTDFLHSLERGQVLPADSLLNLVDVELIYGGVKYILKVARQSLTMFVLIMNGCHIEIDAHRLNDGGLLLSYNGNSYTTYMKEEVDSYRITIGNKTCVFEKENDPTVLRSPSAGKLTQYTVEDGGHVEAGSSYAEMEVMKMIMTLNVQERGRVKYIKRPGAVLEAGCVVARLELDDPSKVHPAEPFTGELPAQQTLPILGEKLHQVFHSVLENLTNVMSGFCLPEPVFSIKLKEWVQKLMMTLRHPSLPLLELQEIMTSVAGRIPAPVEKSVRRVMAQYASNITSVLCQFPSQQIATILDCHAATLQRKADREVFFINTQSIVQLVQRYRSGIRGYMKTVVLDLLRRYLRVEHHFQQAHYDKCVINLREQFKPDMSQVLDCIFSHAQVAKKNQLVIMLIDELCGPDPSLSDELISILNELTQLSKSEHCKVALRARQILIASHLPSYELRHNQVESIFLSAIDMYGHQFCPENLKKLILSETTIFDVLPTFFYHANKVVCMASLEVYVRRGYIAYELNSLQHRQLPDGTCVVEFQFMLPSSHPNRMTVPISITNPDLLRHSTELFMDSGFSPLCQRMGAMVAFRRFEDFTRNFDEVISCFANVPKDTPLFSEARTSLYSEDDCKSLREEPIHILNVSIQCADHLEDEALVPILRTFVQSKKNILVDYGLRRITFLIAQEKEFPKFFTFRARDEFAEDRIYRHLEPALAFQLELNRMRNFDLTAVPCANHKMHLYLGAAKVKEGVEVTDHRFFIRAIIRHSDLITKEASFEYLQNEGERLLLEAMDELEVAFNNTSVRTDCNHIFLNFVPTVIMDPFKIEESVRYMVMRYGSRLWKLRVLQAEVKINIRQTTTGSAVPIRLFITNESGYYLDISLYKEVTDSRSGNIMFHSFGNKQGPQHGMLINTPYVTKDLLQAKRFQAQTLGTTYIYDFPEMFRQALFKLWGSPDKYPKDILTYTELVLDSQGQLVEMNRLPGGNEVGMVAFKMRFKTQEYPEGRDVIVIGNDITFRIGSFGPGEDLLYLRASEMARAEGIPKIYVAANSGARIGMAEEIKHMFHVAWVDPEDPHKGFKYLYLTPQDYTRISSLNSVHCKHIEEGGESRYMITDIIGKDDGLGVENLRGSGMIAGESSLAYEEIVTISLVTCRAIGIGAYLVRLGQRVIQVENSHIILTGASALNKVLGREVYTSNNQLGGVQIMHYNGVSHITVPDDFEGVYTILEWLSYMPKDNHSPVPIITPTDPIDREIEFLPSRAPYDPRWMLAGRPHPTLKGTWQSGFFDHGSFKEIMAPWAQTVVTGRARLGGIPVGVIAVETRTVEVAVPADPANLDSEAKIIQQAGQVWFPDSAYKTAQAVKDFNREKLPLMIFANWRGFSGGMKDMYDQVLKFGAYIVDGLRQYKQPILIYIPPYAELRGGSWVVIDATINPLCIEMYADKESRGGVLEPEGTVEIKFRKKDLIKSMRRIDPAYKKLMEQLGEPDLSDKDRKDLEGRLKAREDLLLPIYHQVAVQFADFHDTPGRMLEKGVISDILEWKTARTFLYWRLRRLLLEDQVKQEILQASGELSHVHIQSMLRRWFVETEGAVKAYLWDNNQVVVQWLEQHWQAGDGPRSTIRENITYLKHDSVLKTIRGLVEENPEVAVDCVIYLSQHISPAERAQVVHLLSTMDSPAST
Format: biochemical
Excerpt: The cDNA encoding amino acids 144 to 2458 of human acetyl-CoA carboxylase 2 (ACC2, GenBank Accession #NM_001093) was cloned into the SalI and NotI sites of pFastBac1 (Invitrogen; Carlsbad, Calif.). The resulting plasmid was used to generate a recombinant ACC2 baculovirus that was amplified and titered according to the protocols in the Bac-to-Bac baculovirus expression system manual (Invitrogen). The titered virus was used to infect Sf9 cells grown in Ex-Cell 420 serum-free medium (JRH Biosciences; Lenexa, Kans.). At 48 hours post-infection, the cells were harvested and stored at −80° C. until purification. ACC2 was purified using ammonium sulfate precipitation and anion exchange chromatography.
The enzymatic assay was run as follows: 30 μL of reaction buffer (100 mM HEPES pH 7.5, 20 mM MgCl2, 20 mM potassium citrate, 2 mM DTT) was added to a 384-well microtiter plate followed by 2 μL of the test compound (or 100% DMSO control). ACC2 protein (10 μL of a 50 nM working solution) was added to plate, which was incubated at room temperature for 15 minutes. A 30 μL addition of substrate solution (50 μM acetyl-CoA, 120 μM ATP, 2 mM KHCO3) was used to initiate the reactions which were quenched with 6% acetic acid (40 μL). ACC catalyzed malonyl-CoA formation was detected by LC/MS/MS using a Cohesive Technologies LX Series multiplex LC/MSIMS system configured with four binary pumps (Agilent Technologies; Palo Alto, Calif.), a dual arm autosampler (Leap Technologies; Cary, N.C.), and one Quattro Micro triple quadrupole mass spectrometer (Waters, Milford, Mass.), all run by Aria Software version 1.5 (Cohesive Technologies; Franklin, Mass.). Four samples were injected (20 μL) onto four Phenosphere NEXT C18 30×2 mm 5 μm columns (Phenomenex; Torrance, Calif.), eluted by four separate pumps, running identical gradients, through a column switching manifold with the one outlet fitted to the electrospray (ESI) source. Malonyl-CoA was eluted with 5 mM ammonium acetate, pH 4.5 (Buffer A) and 100% acetonitrile (Buffer B) via a step gradient. Argon was used as the collision gas and the following species were monitored via MRM detection: malonyl-CoA (853.8>346.9), internal standard (A: [^13C3]-malonyl-CoA, 857>350). The lower limit of detection is 0.3 uM for malonyl-CoA in this assay.
For `C[C@@H](NC(=O)[C@H]1CC[C@H](NS(=O)(=O)c2ccc3[nH]c(-c4ccccc4)nc3c2)CC1)c1ccccc1` [Example 1, (1r,4R)-4-(2-phenyl-1H-benzo[d]imidazole-5-sulfonamido)-N—((R)-1-phenylethyl)cyclohexanecarboxamide], the IC50 was 13 nM. `CCOC(=O)c1cccc(-c2nc3ccc(S(=O)(=O)N[C@H]4CC[C@H](C(=O)N[C@H](C)c5ccccc5)CC4)cc3[nH]2)c1` [Example 2, ethyl 3-(6-(N-((1R,4r)-4-((R)-1-phenylethylcarbamoyl)cyclohexyl)sulfamoyl)-1H-benzo[d]imidazol-2-yl)benzoate] was tested, and the IC50 was 19 nM. `C[C@@H](NC(=O)[C@H]1CC[C@H](NS(=O)(=O)c2ccc3[nH]c([C@@H]4CCCN4)nc3c2)CC1)c1ccc(F)cc1` [Example 3, (1r,4R)—N—((R)-1-(4-fluorophenyl)ethyl)-4-(2-((S)-pyrrolidin-2-yl)-1H-benzo[d]imidazole-5-sulfonamido)cyclohexanecarboxamide] was tested, and the IC50 was 507 nM. Compound `C[C@@H](NC(=O)[C@H]1CC[C@H](NS(=O)(=O)c2ccc3c(c2)nc(-c2ccccc2)n3C)CC1)c1ccc(F)cc1` [Example 4, (1r,4R)—N—((R)-1-(4-fluorophenyl)ethyl)-4-(1-methyl-2-phenyl-1H-benzo[d]imidazole-5-sulfonamido)cyclohexanecarboxamide] has an IC50 of 13 nM. `Cc1nc2cc(S(=O)(=O)N[C@H]3CC[C@H](C(=O)N[C@H](C)c4ccc(F)cc4)CC3)ccc2n1C` [Example 5, (1r,4R)-4-(1,2-dimethyl-1H-benzo[d]imidazole-5-sulfonamido)-N—((R)-1-(4-fluorophenyl)ethyl)cyclohexanecarboxamide] was tested, and the IC50 was 244 nM. `C[C@@H](NC(=O)[C@H]1CC[C@H](NS(=O)(=O)c2ccc3nc(C4CCOCC4)[nH]c3c2)CC1)c1ccc(F)cc1` [Example 6, (1r,4R)—N—((R)-1-(4-fluorophenyl)ethyl)-4-(2-(tetrahydro-2H-pyran-4-yl)-1H-benzo[d]imidazole-6-sulfonamido)cyclohexanecarboxamide] gave an IC50 of 156 nM. For `CC(C)N(C)C(=O)[C@H]1CC[C@H](NS(=O)(=O)c2ccc3[nH]c(Nc4ccccc4)nc3c2)CC1` [Example 7, (1r,4r)-N-isopropyl-N-methyl-4-(2-(phenylamino)-1H-benzo[d]imidazole-5-sulfonamido)cyclohexanecarboxamide], the IC50 was 71 nM. Compound `CC(=O)Nc1ccc(-c2nc3ccc(S(=O)(=O)N[C@H]4CC[C@H](C(=O)OC(C)C)CC4)cc3[nH]2)cc1` [Example 8, (1r,4r)-isopropyl 4-(2-(4-acetamidophenyl)-1H-benzo[d]imidazole-5-sulfonamido)cyclohexanecarboxylate] has an IC50 of 45 nM. `CN1CCN(c2ccc(Nc3nc4cc(S(=O)(=O)N[C@H]5CC[C@H](c6nnc(C(C)(C)C)o6)CC5)ccc4[nH]3)cc2)CC1` [Example 9, N-((1r,4r)-4-(5-tert-butyl-1,3,4-oxadiazol-2-yl)cyclohexyl)-2-(4-(4-methylpiperazin-1-yl)phenylamino)-1H-benzo[d]imidazole-5-sulfonamide] gave an IC50 of 47 nM. For `CN1CCN(c2ccc(-c3nc4cc(S(=O)(=O)N[C@H]5CC[C@H](c6nnc(C(C)(C)C)o6)CC5)ccc4[nH]3)cc2)CC1` [Example 10, N-((1r,4r)-4-(5-tert-butyl-1,3,4-oxadiazol-2-yl)cyclohexyl)-2-(4-(4-methylpiperazin-1-yl)phenyl)-1H-benzo[d]imidazole-5-sulfonamide], the IC50 was 115 nM. `C[C@@H](NC(=O)[C@H]1CC[C@H](NS(=O)(=O)c2ccc3nc(-c4ccccc4)oc3c2)CC1)c1ccc(F)cc1` [Example 11, N—((R)-1-(4-fluorophenyl)ethyl)-4-(2-phenylbenzo[d]oxazole-6-sulfonamido)cyclohexanecarboxamide] gave an IC50 of 48 nM. `C[C@@H](NC(=O)[C@H]1CC[C@H](NS(=O)(=O)c2ccc3c(ccn3C)c2)CC1)c1ccc(F)cc1` [Example 12, (1r,4R)—N—((R)-1-(4-fluorophenyl)ethyl)-4-(1-methyl-1H-indole-5-sulfonamido)cyclohexanecarboxamide] was tested, and the IC50 was 55 nM. Compound `C[C@@H](NC(=O)[C@H]1CC[C@H](NS(=O)(=O)c2ccc3[nH]c(-c4ccccc4)cc3c2)CC1)c1ccccc1` [Example 13, (1r,4R)-4-(2-phenyl-1H-indole-5-sulfonamido)-N—((R)-1-phenylethyl)cyclohexanecarboxamide] has an IC50 of 65 nM. Work on `C[C@@H](NC(=O)[C@H]1CC[C@H](NS(=O)(=O)c2ccc3c(c2)cc(-c2ccccc2)n3C)CC1)c1ccc(F)cc1` [Example 14, (1r,4R)—N—((R)-1-(4-fluorophenyl)ethyl)-4-(1-methyl-2-phenyl-1H-indole-5-sulfonamido)cyclohexanecarboxamide] yielded an IC50 of 10 nM. With `Cn1c(-c2ccccc2)cc2cc(S(=O)(=O)N[C@H]3CC[C@H](C(=O)N[C@@H](c4ccccc4)C(C)(C)O)CC3)ccc21` [Example 15, (1r,4S)—N—((S)-2-hydroxy-2-methyl-1-phenylpropyl)-4-(1-methyl-2-phenyl-1H-indole-5-sulfonamido)cyclohexanecarboxamide] the IC50 was under 10 nM. Work on `C[C@@H](NC(=O)[C@H]1CC[C@H](NS(=O)(=O)c2ccc3[nH]ccc3c2)CC1)c1ccc(F)cc1` [Example 16, (1r,4R)—N—((R)-1-(4-fluorophenyl)ethyl)-4-(1H-indole-5-sulfonamido)cyclohexanecarboxamide] yielded an IC50 of 51 nM. With `Cc1cn(C)c2ncc(S(=O)(=O)N[C@H]3CC[C@H](C(=O)N[C@H](C)c4ccc(F)cc4)CC3)cc12` [Example 17] the IC50 was 65 nM. Compound `C[C@@H](NC(=O)[C@H]1CC[C@H](NS(=O)(=O)c2ccc3cc(-c4ccccc4)[nH]c3c2)CC1)c1ccc(F)cc1` [Example 18, (1r,4R)—N—((R)-1-(4-fluorophenyl)ethyl)-4-(2-phenyl-1H-indole-6-sulfonamido)cyclohexanecarboxamide] has an IC50 of 11 nM. In the case of `C[C@@H](NC(=O)[C@H]1CC[C@H](NS(=O)(=O)c2ccc3cc(-c4ccccc4)[nH]c3c2)CC1)c1ccccn1` [Example 19, (1r,4R)-4-(2-phenyl-1H-indole-6-sulfonamido)-N—((R)-1-(pyridin-2-yl)ethyl)cyclohexanecarboxamide], the IC50 is reported as 56 nM. In the case of `C[C@@H](NC(=O)[C@H]1CC[C@H](NS(=O)(=O)c2ccc3cc(-c4ccccc4)n(C)c3c2)CC1)c1ccc(F)cc1` [Example 20, (1r,4R)—N—((R)-1-(4-fluorophenyl)ethyl)-4-(1-methyl-2-phenyl-1H-indole-6-sulfonamido)cyclohexanecarboxamide], the IC50 is reported as under 10 nM. `Cn1c(-c2ccccc2)c(Cl)c2ccc(S(=O)(=O)N[C@H]3CC[C@H](C(=O)N4CCN[C@H](C(F)(F)F)C4)CC3)cc21` [Example 21, 3-chloro-1-methyl-2-phenyl-N-((1S,4r)-4-((S)-3-(trifluoromethyl)piperazine-1-carbonyl)cyclohexyl)-1H-indole-6-sulfonamide] gave an IC50 of under 10 nM. `CC(C)[C@H]1COCCN1C(=O)[C@H]1CC[C@H](NS(=O)(=O)c2ccc3cc(C4CC4)n(C)c3c2)CC1` [Example 22, 2-cyclopropyl-N-((1S,4r)-4-((S)-3-isopropylmorpholine-4-carbonyl)cyclohexyl)-1-methyl-1H-indole-6-sulfonamide] showed an IC50 of 70 nM. `Cn1c(C2CC2)c(C#N)c2ccc(S(=O)(=O)N[C@H]3CC[C@H](C(=O)N4CCOCC4)CC3)cc21` [Example 23, 3-cyano-2-cyclopropyl-1-methyl-N-((1r,4r)-4-(morpholine-4-carbonyl)cyclohexyl)-1H-indole-6-sulfonamide] was tested, and the IC50 was 150 nM.

Source: US8697739B2, “Bicyclic acetyl-CoA carboxylase inhibitors and uses thereof” (Novartis AG, priority 2010, dated 2014)
